According to patent publication US12648946B2, “Combination of antibody-pyrrolobenzodiazepine derivative conjugate and PARP inhibitor” (DAIICHI SANKYO COMPANY, LIMITED, priority 2019, dated 2026):
Where two headings read alike, the source gives them in different places.

Assays:
[1] = test system: human pharyngeal cancer cell line FaDu; experiment: Cell growth inhibition test (3); format: cell-based; details: 144 h
Experimental: The human pharyngeal cancer cell line FaDu obtained from ATCC (American Type Culture Collection) was used for evaluation. Cells were prepared with MEM containing 10% fetal bovine serum (GE Healthcare), MEM Non-Essential Amino Acids Solution (Thermo Fisher Scientific), and Sodium Pyruvate (Thermo Fisher Scientific) (Thermo Fisher Scientific; hereinafter, referred to as EMEM medium) to reach 6.25×10^3 cells/mL, and 80 μL portions of them were added into a 96-well cell culture microplate. After addition of the cells, the cells were cultured at 37° C. and 5% CO2 overnight.
(§1) On the next day, 10 μL portions of pyrrolobenzodiazepine derivative A, B, or C diluted with EMEM medium to 100 pM, 50 pM, 25 pM, 12.5 pM, 6.25 pM, 3.13 pM, 1.56 pM, or 0.78 pM were added to the microplate. To each well without any pyrrolobenzodiazepine derivative, 10 μL of EMEM medium was added. Further, 10 μL portions of talazoparib prepared with EMEM medium to reach 2 nM were added to the microplate. To each well without talazoparib, 10 μL of EMEM medium was added. Thereafter, the microplate was cultured at 37° C. and 5% CO2 for 6 days. After culturing, the microplate was taken out of the incubator, and left to stand at room temperature for 30 minutes. CellTiter-Glo Luminescent Cell Viability Assay (Promega Corporation) in an amount equivalent to that of the culture solution was added, and stirred using a plate mixer. The microplate was left to stand at room temperature for 10 minutes, and thereafter the amount of emission was measured by using a plate reader (PerkinElmer).
Cell survival rates in wells with derivative A, B, or C were calculated by using the following formula.
[formula] • a: Mean value of amounts of emission from wells with derivative A, B, or C • b: Mean value of amounts of emission from wells with medium • IC50 values were calculated by using the following formula.
(§2) [formula] • a: Concentration of derivative A, B, or C, a • b: Concentration of derivative A, B, or C, b • c: Cell survival rate when derivative A, B, or C of concentration a was added • d: Cell survival rate when derivative A, B, or C of concentration b was added • a and b satisfy a>b at points sandwiching a cell survival rate of 50%.
Cell survival rates in wells with derivative A, B, or C added together with 2 nM talazoparib were calculated by using the following formula.
[formula] • a: Mean value of amounts of emission from wells with derivative A, B, or C added together with 2 nM talazoparib • b: Mean value of amounts of emission from wells with 2 nM talazoparib • IC50 values were calculated by using the following formula.
as §2, with “and 2 nM talazoparib were” for “was”

[2] = test system: human ovarian cancer cell line SK-OV-3; experiment: Cell growth inhibition test (4); format: cell-based; details: for IC50: SK-OV-3, 144 h
Experimental: Cells of the human ovarian cancer cell line SK-OV-3 purchased from ATCC (American Type Culture Collection) were used for evaluation. Cells were prepared with McCoy's 5A (Modified) Medium containing 10% fetal bovine serum (GE Healthcare) (Thermo Fisher Scientific; hereinafter, referred to as McCoy's SA medium) to reach 1.25×10^4 cells/mL, and 80 μL portions of them were added into a 96-well cell culture microplate. After addition of the cells, the cells were cultured at 37° C. and 5% CO2 overnight.
as §1, with “derivative A” for “derivative A, B, or C”, “with McCoy's 5A” for “with EMEM”, “without” for “without any”, “pyrrolobenzodiazepine derivative A,” for “pyrrolobenzodiazepine derivative,”, “of McCoy's 5A” for “of EMEM”, “reach 5” for “reach 2”
Cell survival rates in wells with derivative A were calculated by using the following formula.
[formula] • a: Mean value of amounts of emission from wells with derivative A • b: Mean value of amounts of emission from wells with medium • IC50 values were calculated by using the following formula. […]
Cell survival rates in wells with derivative A added together with 5 nM talazoparib were calculated by using the following formula. […]

| Compound | inhibition at 0.002 µM ([1]; 2 nM talazoparib alone, 6 days) [%] | inhibition at 0.005 µM ([2]; 144 h, 5 nM talazoparib alone, SK-OV-3, 6 days) [%] | IC50 ([1]; read-out: IC50, growth-suppressing effect, added singly, FaDu, 6 days (test 3)) [pM] | IC50 ([1]; read-out: IC50, growth-suppressing effect, added together with 2 nM talazoparib, FaDu, 6 days) [pM] | IC50 ([2]; read-out: IC50, growth-suppressing effect, added singly, SK-OV-3, 6 days) [pM] | IC50 ([2]; read-out: IC50, growth-suppressing effect, added together with 5 nM talazoparib, SK-OV-3, 6 days) [pM] |
| --- | --- | --- | --- | --- | --- | --- |
| Cn1ncnc1[C@H]1c2n[nH]c(=O)c3cc(F)cc(c23)N[C@@H]1c1ccc(F)cc1 [talazoparib] | < 10 | < 10 | – | – | – | – |
| COc1ccc(C2=CN3C(=O)c4cc(OC)c(OCCCCCOc5cc6c(cc5OC)C(=O)N5CC7(CC7)C[C@H]5C=N6)cc4NC[C@@H]3C2)cc1 [derivative A, (11a′S)-7′-Methoxy-8′-[(5-{[(11aS)-7-methoxy-2-(4-methoxyphenyl)-5-oxo-5,10,11,11a-tetrahydro-1H-pyrrolo[2,1-c][1,4]benzodiazepin-8-yl]oxy}pentyl)oxy]-1′,11a′-dihydro-5′H-spiro[cyclopropane-1,2′-pyrrolo[2,1-c][1,4]benzodiazepine]-5′-one] | – | – | 7.7 | 4.7 | 8.1 | 4.6 |
